# Assays:
# [1] = test system: HCC827-SVD cells (human EGFR exon 20 insertion mutant D770_N771insSVD); test: Cell growth inhibition (CellTiter-Glo), HCC827-SVD; format: cell-based; conditions: 72 h, 3 days
# Procedure: (§1) Generation of HCC827-SVD, HCC827-ASV, and HCC827-YVMA cell lines. The HCC827-SVD cell line was generated by first transducing HCC827 cells (ATCC) with lentiviral particles expressing codon-optimized human EGFR exon 20 insertion mutant D770_N771insSVD, and then selecting under 5 µg/mL puromycin treatment for a week. The resulting cells were further transduced with lentiviral particles carrying EGFR sgRNA and CAS9 to knockout the endogenous alleles of EGER and then selected under 500 µg/mL hygromycin B treatment for two weeks. The limiting dilution approach was used to subsequently generate the single clone of the HCC827-SVD stable cell line. Endogenous EGFR knockout was confirmed by Sanger sequencing of cell genomic DNA, and expression of exogenous mutant EGFR was verified by Western blot analysis.
# (§2) 2. Cell Growth Inhibition for HCC827, HCC827-SVD, HCC827-ASV, HCC827-YVMA, and A431.
# (§3) HCC827(ATCC), HCC827-SVD, HCC827-ASV, and HCC827-YVMA cells were seeded in 96-well plates at 5000 cells/well in 90 μL of RPMI growth medium containing 10% FBS and 1% Penicillin Streptomycin. A431 (ATCC) cells were seeded in 96-well plates at 5000 cells/well in 90 μL of DMEM growth medium containing 10% FBS and 1% Penicillin Streptomycin. Cells were incubated at 37° C. overnight and then administered with 10 μL 10× test compounds prepared in the growth medium at various concentrations. After administration of the compounds, cells were incubated at 37° C. for 3 days. Before the CellTiter-Glo assay, the plates were equilibrated at room temperature for approximately 30 minutes. 100 ul of CellTiter-Glo reagent (Promega) was added to each well. The plates were then incubated at room temperature for 10 minutes and luminescence was recorded by the EnSight® multimode plate reader (PerkinElmer). Table 7 listed selected compounds in cellular growth assay.
# [2] = test system: HCC827-YVMA cells (human ERBB2 exon20 insertion mutant A775_G776ins YVMA); test: Cell growth inhibition (CellTiter-Glo), HCC827-YVMA; format: cell-based; conditions: 72 h, HCC827-YVMA cells, 3 days, CellTiter-Glo, read-out: Cell growth inhibition, GI50 (nM) HCC827-YVMA
# Procedure: as §1
# HCC827-ASV and HCC827-YVMA cell lines were generated in a similar approach as HCC827-SVD, except that HCC827 cells (ATCC) were first transduced with lentiviral particles expressing codon-optimized human EGFR exon 20 insertion mutant V769_D770insASV and human ERBB2 exon20 insertion mutant A775_G776ins YVMA, respectively.
# as §2, §3
SMILES,GI50 [1],GI50 [2]
"C=CC(=O)N1CCC(c2c[nH]c3ncnc(Nc4ccc(Oc5ccnc(NC(=O)C6CCCC6)c5)c(Cl)c4)c23)CC1 [Compound 38, N-[4-[2-chloro-4-[[5-(1-prop-2-enoyl-4-piperidyl)-7H-pyrrolo[2,3-d]pyrimidin-4-yl]amino]phenoxy]-2-pyridyl]cyclopentanecarboxamide]",50 to 200 nM,50 to 200 nM
"C=CC(=O)N1CCC(c2c[nH]c3ncnc(Nc4ccc(Oc5ccnc(Nc6ccccn6)c5)c(Cl)c4F)c23)CC1 [Compound 40, 1-(4-(4-((3-chloro-2-fluoro-4-((2-(pyridin-2-ylamino)pyridin-4-yl)oxy)phenyl)amino)-7H-pyrrolo[2,3-d]pyrimidin-5-yl)piperidin-1-yl)prop-2-en-1-one]",< 50 nM,< 50 nM
"C=CC(=O)N1CCC(c2c[nH]c3ncnc(Nc4ccc(Oc5ccn(-c6ccc7cc[nH]c7n6)n5)cc4F)c23)CC1 [Compound 41, 1-(4-(4-((4-((1-(1H-pyrrolo[2,3-b]pyridin-6-yl)-1H-pyrazol-3-yl)oxy)-2-fluorophenyl)amino)-7H-pyrrolo[2,3-d]pyrimidin-5-yl)piperidin-1-yl)prop-2-en-1-one]",50 to 200 nM,200 to 1000 nM
"C=CC(=O)N1CCC(c2c[nH]c3ncnc(Nc4ccc(Oc5ccnc(NCc6ccccn6)c5)cc4F)c23)CC1 [Compound 42, 1-(4-(4-((2-fluoro-4-((2-((pyridin-2-ylmethyl)amino)pyridin-4-yl)oxy)phenyl)amino)-7H-pyrrolo[2,3-d]pyrimidin-5-yl)piperidin-1-yl)prop-2-en-1-one]",200 to 1000 nM,200 to 1000 nM
"C=CC(=O)N1CCC(c2c[nH]c3ncnc(Nc4ccc(Oc5ccnc(N6CCC(C(F)(F)F)C6)c5)c(Cl)c4)c23)CC1 (stereo not shown) [Compound 43, 1-[4-[4-[3-chloro-4-[[2-[3-(trifluoromethyl)pyrrolidin-1-yl]-4-pyridyl]oxy]anilino]-7H-pyrrolo[2,3-d]pyrimidin-5-yl]-1-piperidyl]prop-2-en-1-one]",50 to 200 nM,50 to 200 nM
"C=CC(=O)N1CCC(c2c[nH]c3ncnc(Nc4ccc(Oc5ccnc(Nc6ccccn6)n5)cc4F)c23)CC1 [Compound 44, 1-(4-(4-((2-fluoro-4-((2-(pyridin-2-ylamino)pyrimidin-4-yl)oxy)phenyl)amino)-7H-pyrrolo[2,3-d]pyrimidin-5-yl)piperidin-1-yl)prop-2-en-1-one]",200 to 1000 nM,200 to 1000 nM
"C=CC(=O)N1CCC(c2c[nH]c3ncnc(Nc4ccc(Oc5ccnc(NCC(C)C)n5)cc4F)c23)CC1 [Compound 45, 1-(4-(4-((2-fluoro-4-((2-(isoButylamino)pyrimidin-4-yl)oxy)phenyl)amino)-7H-pyrrolo[2,3-d]pyrimidin-5-yl)piperidin-1-yl)prop-2-en-1-one]",50 to 200 nM,50 to 200 nM
"C=CC(=O)N1CCC(c2c[nH]c3ncnc(Nc4ccc(Oc5ccnc(-c6ccn(C)n6)c5)c(Cl)c4)c23)CC1 [Compound 48, 1-(4-(4-((3-chloro-4-((2-(1-methyl-1H-pyrazol-3-yl)pyridin-4-yl)oxy)phenyl)amino)-7H-pyrrolo[2,3-d]pyrimidin-5-yl)piperidin-1-yl)prop-2-en-1-one]",50 to 200 nM,50 to 200 nM
"C=CC(=O)N1CCC(c2c[nH]c3ncnc(Nc4ccc(Oc5ccnc(N6CCC(C(F)(F)F)C6)n5)cc4F)c23)CC1 (stereo not shown) [Compound 50, 1-(4-(4-((2-fluoro-4-((2-(3-(trifluoromethyl)pyrrolidin-1-yl)pyrimidin-4-yl)oxy)phenyl)amino)-7H-pyrrolo[2,3-d]pyrimidin-5-yl)piperidin-1-yl)prop-2-en-1-one]",200 to 1000 nM,50 to 200 nM
"C=CC(=O)N1CCC(c2c[nH]c3ncnc(Nc4ccc(Oc5ccnc(C6CCC6)c5)cc4F)c23)CC1 [Compound 51, 1-(4-(4-((4-((2-cycloButylpyridin-4-yl)oxy)-2-fluorophenyl)amino)-7H-pyrrolo[2,3-d]pyrimidin-5-yl)piperidin-1-yl)prop-2-en-1-one]",200 to 1000 nM,200 to 1000 nM

# Further lines, results first:
GI50 [1],GI50 [2],SMILES
< 50 nM,< 50 nM,"C=CC(=O)N1CCC(c2c[nH]c3ncnc(Nc4ccc(OCc5ncccc5Cl)c(Cl)c4)c23)CC1 [Compound 35, 1-(4-(4-((3-chloro-4-((3-chloropyridin-2-yl)methoxy)phenyl)amino)-7H-pyrrolo[2,3-d]pyrimidin-5-yl)piperidin-1-yl)prop-2-en-1-one]"
< 50 nM,< 50 nM,"C=CC(=O)N1CCC(c2c[nH]c3ncnc(Nc4ccc(OCc5cccc(F)n5)c(Cl)c4)c23)CC1 [Compound 36, 1-(4-(4-((3-chloro-4-((6-fluoropyridin-2-yl)methoxy)phenyl)amino)-7H-pyrrolo[2,3-d]pyrimidin-5-yl)piperidin-1-yl)prop-2-en-1-one]"
< 50 nM,< 50 nM,"C=CC(=O)N1CCC(c2c[nH]c3ncnc(Nc4ccc(OCc5ncccc5F)c(Cl)c4)c23)CC1 [Compound 37, 1-(4-(4-((3-chloro-4-((3-fluoropyridin-2-yl)methoxy)phenyl)amino)-7H-pyrrolo[2,3-d]pyrimidin-5-yl)piperidin-1-yl)prop-2-en-1-one]"
< 50 nM,< 50 nM,"C=CC(=O)N1CCC(c2c[nH]c3ncnc(Nc4ccc(OCc5ccccn5)c(Br)c4)c23)CC1 [Compound 39, 1-(4-(4-((3-bromo-4-(pyridin-2-ylmethoxy)phenyl)amino)-7H-pyrrolo[2,3-d]pyrimidin-5-yl)piperidin-1-yl)prop-2-en-1-one]"
50 to 200 nM,50 to 200 nM,"C=CC(=O)N1CCC(c2c[nH]c3ncnc(Nc4ccc(Oc5ccnc6cc[nH]c56)c(Cl)c4)c23)CC1 [Compound 46, 1-(4-(4-((4-((1H-pyrrolo[3,2-b]pyridin-7-yl)oxy)-3-chlorophenyl)amino)-7H-pyrrolo[2,3-d]pyrimidin-5-yl)piperidin-1-yl)prop-2-en-1-one]"
< 50 nM,50 to 200 nM,"C=CC(=O)N1CCC(c2c[nH]c3ncnc(Nc4ccc(OCc5cnc(Cn6cncn6)nc5)c(Cl)c4)c23)CC1 [Compound 47, 1-(4-(4-((4-((2-((1H-1,2,4-triazol-1-yl)methyl)pyrimidin-5-yl)methoxy)-3-chlorophenyl)amino)-7H-pyrrolo[2,3-d]pyrimidin-5-yl)piperidin-1-yl)prop-2-en-1-one]"
50 to 200 nM,< 50 nM,"C=CC(=O)N1CCC(c2c[nH]c3ncnc(Nc4ccc(Oc5ccnc(Nc6ccccn6)c5)c(Cl)c4)c23)CC1 [Compound 49, 1-(4-(4-((3-chloro-4-((2-(pyridin-2-ylamino)pyridin-4-yl)oxy)phenyl)amino)-7H-pyrrolo[2,3-d]pyrimidin-5-yl)piperidin-1-yl)prop-2-en-1-one]"
< 50 nM,< 50 nM,"C=CC(=O)N1CCC(c2c[nH]c3ncnc(Nc4ccc(OCc5nncs5)c(Cl)c4)c23)CC1 [Compound 52, 1-(4-(4-((4-((1,3,4-thiadiazol-2-yl)methoxy)-3-chlorophenyl)amino)-7H-pyrrolo[2,3-d]pyrimidin-5-yl)piperidin-1-yl)prop-2-en-1-one]"
–,< 50 nM,"C=CC(=O)N1CCC(c2c[nH]c3ncnc(Nc4ccc(Oc5cccc(C(F)(F)F)c5)c(Cl)c4)c23)CC1 [Compound 225, 1-[4-[4-[3-chloro-4-[3-(trifluoromethyl)phenoxy]anilino]-7H-pyrrolo[2,3-d]pyrimidin-5-yl]-1-piperidyl]prop-2-en-1-one]"

# Reference: patent US20240059698A1 (Accutar Biotechnology Inc., priority 2022, published 2024)
